Experimental data from EP0022621A1, “Peptides related to somatostatin, their preparation and pharmaceutical compositions containing them” (ELI LILLY AND COMPANY, priority 1979, dated 1981).
Several values for one entry are separate records, joined by “and”; a condition that tells them apart may be missing. Identical values can stand only once. Positions of bridges follow the written chain, without caps; N, C: chain ends. No end group written: not given here.

Tests used:
[1] = system: growth hormone (GH) secretion; assay: Growth Hormone Inhibition In Rats (pentobarbital-stimulated GH secretion, serum GH by radioimmunoassay); assay type: in vivo; conditions: for GH Serum Conc.: male rats, sodium pentobarbital 4 mg/rat I.P., 20 minutes, Mean ± SEM; for % Inhibition: inhibition of GH release compared to saline controls
Description: A. Growth Hormone Inhibition In Rats:
This test is a modification of the method of P. Brazeau et al. Endocrinology, 94, 184 (1974). Male rats (weighing 100-110 g.) are divided into three groups of eight rats each. Each rat is administered sodium pentobarbital at a dose of 4 mg/rat (I.P.) to stimulate growth hormone (GH) secretion. Simultaneously, one group of rats receives the test compound (S.C.); the second group receives somatostatin (S.C.); and the third group (control) receives saline (S.C.). Twenty- minutes later, the animals are decapitated and blood samples are collected. The serum concentration of growth hormone (GH) is determined by'radioimmunoassay. The mean GH concentration (+ standard error of the mean) is calculated for each group. The percent inhibition of GH release (as compared to saline controls) is then calculated for the test compound and for somatostatin. When tested as above-described, the peptides of Examples 2, 4, 6, 8 and 10, representative of the peptides of Formula III, gave the results set forth below in Table I: […]

insulin = assay: Insulin and Glucagon Inhibition In Dogs (L-alanine stimulation, serum insulin by radioimmunoassay); assay type: in vivo, dog; conditions: for Result: inhibition of insulin: fasted dog, L-alanine infusion; for inhibition of secretion of insulin: dog stimulated with L-alanine, dose not stated
Description: (§1) B. Insulin and Glucagon Inhibition In Dogs:
(§2) A normal dog is fasted overnight. An intravenous (I.V.) infusion of the test compound (dissolved in saline) is begun. Thirty minutes thereafter an additional infusion of L-alanine (dissolved in saline) is begun and is continued for a total of 15 minutes so that a total dose of about 1 mmole of L-alanine per kg. body weight is given. Infusion of the test compound is continued for an additional 15 minute period.
(§3) Blood samples are taken periodically before (at -20, -10 and -1 minutes) and after (5, 10, 15, 30, 35, 40, 45, 50, 60, 90, 120 and 150 minutes) the start of the infusion of the test compound. The serum insulin and serum glucagon concentrations in the blood are determined by radioimmunoassay. A plot is made of the glucagon and insulin concentrations versus time. The plot obtained from the test compound is compared to plots obtained from somatostatin and saline (controls) in similar experiments.
(§4) Infusion of L-alanine (in the absence of somatostatin or active test compound) causes an abrupt increase in serum insulin and glucagon concentrations. The concentrations return to basal levels after the L-alanine infusion is terminated. Infusion of somatostatin (alone) causes a decrease in basal serum concentrations of insulin and glucagon.

glucagon = assay: Insulin and Glucagon Inhibition In Dogs (L-alanine stimulation, serum glucagon by radioimmunoassay); assay type: in vivo, dog; conditions: for Result: inhibition of glucagon: fasted dog, L-alanine infusion; for inhibition of secretion of glucagon: dog stimulated with L-alanine, dose not stated
Description: as §1, §2, §3, §4

[2] = I.V. infusion dose 0.05 µg/kg/min
[3] = I.V. infusion dose 0.098, 0.181, 0.291 µg/kg/min
[4] = I.V. infusion dose 0.20 µg/kg/min
[5] = I.V. infusion dose 0.06 µg/kg/min
[6] = infusion alone, without L-alanine, dog

Row | Substance | GH Serum Conc. ([1]; dose 2 µg/kg S.C.) | GH Serum Conc. ([1]; dose 50 µg/kg S.C.) | % Inhibition ([1]; dose 2 µg/kg S.C.) | % Inhibition ([1]; dose 50 µg/kg S.C.) | Result: inhibition of insulin (insulin; [2]) | inhibition of secretion of insulin (insulin) | Result: inhibition of glucagon (glucagon; [2]) | inhibition of secretion of glucagon (glucagon) | also measured
1 | D-Alanyl-glycyl-L-cysteinyl-L-lysyl-D-alanyl-L-phenylalanyl-L-phenylalanyl-D-tryptophyl-L-lysyl-L-threonyl-L-cyclohexylalanyl-L-threonyl-L-seryl-D-cysteine cyclic (3 -> 14) disulfide [Example 4] | 5.5 ± 0.7 ng/mL | 8.4 ± 3.4 ng/mL | 95% | 92% | No inhibition of glucagon and insulin | did not inhibit | No inhibition of glucagon and insulin | did not inhibit | –
2 | D-Alanyl-glycyl-L-cysteinyl-L-lysyl-D-alanyl-L-phenylalanyl-L-phenylalanyl-D-tryptophyl-L-lysyl-L-threonyl-L-phenylalanyl-L-threonyl-L-seryl-D-cysteine cyclic (3 -> 14) disulfide [Example 2] | 7.1 ± 3.8 ng/mL | 2.0 ± 0.3 ng/mL | 94.9% | 98.6% | – | did not inhibit | – | did not inhibit | GH Serum Conc. ([1]; dose 0.25 µg/kg S.C.): 51.0 ± 14.1 ng/mL; GH Serum Conc. ([1]; dose 1 µg/kg S.C.): 30.6 ± 16.0 ng/mL; GH Serum Conc. ([1]; dose 2.5 µg/kg S.C.): 14.8 ± 10.9 ng/mL; GH Serum Conc. ([1]; dose 25 µg/kg S.C.): 2.8 ± 0.2 ng/mL; % Inhibition ([1]; dose 0.25 µg/kg S.C.): 37.4%; % Inhibition ([1]; dose 1 µg/kg S.C.): 79.8%; % Inhibition ([1]; dose 2.5 µg/kg S.C.): 81.8%; % Inhibition ([1]; dose 25 µg/kg S.C.): 98.2%; Result: inhibition of insulin (insulin; [3]): No inhibition of glucagon and insulin; Result: inhibition of glucagon (glucagon; [3]): No inhibition of glucagon and insulin
3 | D-Seryl-glycyl-L-cysteinyl-L-lysyl-L-alanyl-L-phenylalanyl-L-phenylalanyl-D-tryptophyl-L-lysyl-L-threonyl-D-phenylalanyl-L-threonyl-L-seryl-D-cysteine cyclic (3 -> 14) 4isulfide [Example 8] | 79.6 ± 36.2 ng/mL | 40.0 ± 13.4 ng/mL | 0% | 39% | – | did not inhibit | – | did not inhibit | Result: inhibition of insulin (insulin; [4]): No inhibition of glucagon and insulin; Result: inhibition of glucagon (glucagon; [4]): No inhibition of glucagon and insulin
4 | D-Seryl-glycyl-L-cysteinyl-L-lysyl-L-alanyl-L- phenylalanyl-L-phenylalanyl-D-tryptophyl-L-lysyl-L-threonyl-L-cyclohexylalanyl-L-threonyl-L-seryl-D- cysteine cyclic (3 -> 14) disulfide [Example 10] | 68.8 ± 28.2 ng/mL | 2.2 ± 0.1 ng/mL | 34% | 98% | – | – | – | – | Result: inhibition of insulin (insulin; [5]): Partial inhibition of glucagon and insulatum.; Result: inhibition of glucagon (glucagon; [5]): Partial inhibition of glucagon and insulatum.
5 | D-Seryl-glycyl-L-cysteinyl-L-lysyl-L-alanyl-L-phenylalanyl-L-phenylalanyl-D-tryptophyl-L-lysyl-L-threonyl-L-phenylalanyl-L-threonyl-L-seryl-D-cysteine cyclic (3 -> 14) disulfide [Example 6] | 15.5 ± 5.4 ng/mL | 4.0 ± 0.5 ng/mL | 79% | 95% | Significant inhibition of glucagon and insulin | – | Significant inhibition of glucagon and insulin | – | –
6 | Somatostatin (AGCKNFFWKTFTSC; disulfide 3-14 (inferred); ends not checked; UniProt P61278 103-116, looked up) [reference compound] | – | – | – | 86.7% and 52.5% and 57.9% and 91% and 93% and 64% and 98% | – | inhibits the increase | – | inhibits the increase | basal serum concentration of insulin (insulin; [6]): decrease; basal serum concentration of glucagon (glucagon; [6]): decrease
